{"source": "patent US20220409686A1", "about": "“MEDICAL COMPOSITIONS AND THEIR USES” (BIOMILLENIA SAS, priority 2019, published 2022)", "type_in_all_cases": "cell-based", "key": {"[1]": {"test_system": "Malassezia furfur", "assay": "disc diffusion inhibition assay (Example 1)", "settings": "M. furfur lawn in soft agar; 6 mm discs soaked with 15 ul supernatant or ketoconazole 1 mg/ml in DMSO; 5 days incubation", "procedure": "(§1) FIG. 1|Inhibition assays of the fungicide ketoconazole as positive control for inhibition and Kazachstania unispora supernatant on M. sympodialis, M. furfur, M. restricta and M. globosa. Inhibition assays were performed using the disc diffusion method. Discs were soaked with ketoconazole (1 mg/ml) or K. unispora supernatant and placed on agar plates containing a soft layer inoculated with a single culture of the different Malassezia species to be tested.\n(§2) In order to identify strains inhibiting Malassezia growth, inhibition assays were performed using the disc diffusion method. This method consists in disposing discs imbibed with potential inhibitory substances on Petri plates containing a strain of interest. After optimal growth of the strain of interest, growth inhibition can be observed around discs soaked with substances having an inhibitory effect. Potential inhibitory substances tested in this experiment are supernatants obtained after individually culturing a collection of fungal and bacterial strains. After an incubation of 10 days in their optimal broth, each culture was centrifuged and the supernatant was filtered and further stored at −20° C. Ketoconazole, a fungicide, was used as a positive control for Malassezia growth inhibition. It was diluted in dimethyl sulfoxide at 1 mg/ml. The collection of supernantants was tested on the following species from the genus Malassezia: Malassezia restricta, Malassezia globosa, Malassezia furfur and Malassezia sympodialis. All strains were streaked from −80° C. stock on Modified Leeming and Notman (MLN) agar plates and incubated 10 days at 30° C. A 5 ml liquid culture of each species was made in MLN broth and incubated at 30° C. for 2 days for M. furfur and M. sympodialis and 5 days for M. restricta and M. globosa. To allow a lawn growth of the different Malassezia strains tested, Petri plates were prepared as follows: a bottom layer of 50 ml Modified Sabouraud Dextrose (MSD) agar was poured in Petri plates. The soft agar, constituting the top layer, was a mix of 12.5 ml MSD agar, 10.5 ml MLN broth and 2 ml of liquid culture. Plates were allowed to dry for one hour, then, 6 mm-diameter Whatman™ discs were soaked with 15 ul of each thawed supernatants and ketoconazole and placed on the soft agar plate containing the solidified Malassezia monoculture layer. After an incubation of 5 days, inhibition area could be easily observed around discs. As expected, ketoconazole inhibited all 4 Malassezia species tested in this experiment. […] The strain from which the inhibitory supernatant has been produced was further sequenced using the Sanger technology. The internal transcribed spacer (ITS) of this strain was taxonomically assigned to the yeast Kazachstania unispora (BLASTn, 99% identity, 99% query cover, e-value 0.00)."}, "[2]": {"test_system": "Malassezia restricta", "assay": "disc diffusion inhibition assay (Example 1)", "settings": "M. restricta lawn in soft agar; 6 mm discs soaked with 15 ul supernatant or ketoconazole 1 mg/ml in DMSO; 5 days incubation", "procedure": "as §1, §2"}, "[3]": {"test_system": "Malassezia sympodialis", "assay": "disc diffusion inhibition assay (Example 1)", "settings": "M. sympodialis lawn in soft agar; 6 mm discs soaked with 15 ul supernatant or ketoconazole 1 mg/ml in DMSO; 5 days incubation", "procedure": "as §1, §2"}, "[4]": {"test_system": "Malassezia globosa", "assay": "disc diffusion inhibition assay (Example 1)", "settings": "M. globosa lawn in soft agar; 6 mm discs soaked with 15 ul supernatant or ketoconazole 1 mg/ml in DMSO; 5 days incubation", "procedure": "as §1, §2"}, "[5]": {"test_system": "Malassezia restricta", "assay": "modified disc diffusion assay with living culture (Example 2)", "settings": "M. restricta lawn; discs soaked with 15 ul exponentially growing Acetobacter culture or ketoconazole 1 mg/mL in DMSO; 5 days incubation", "procedure": "(§3) FIG. 1|Inhibition assays of M. restricta and M. globose by growth of Acetobacter fabarum. Discs were soaked with ketoconazole (1 mg/ml in DMSO) or exponentially growing Acetobacter fabarum culture and placed on agar plates containing a soft layer inoculated with a single culture of the different Malassezia species to be tested. In the upper panel, inhibition of Malassezia globosa is shown; in the bottom panel, Malassezia restricta is shown.\n(§4) In order to identify strains whose growth inhibits Malassezia, inhibition assays were performed using a modified disc diffusion method. This method is similar to the classical disc diffusion method that consists in depositing discs imbibed with potential inhibitory substances on Petri plates containing a strain of interest, except that the discs were imbibed with a living culture of an Acetobacter strain. After optimal growth of the strain of interest, growth inhibition can be observed around discs on which the growth of inhibitory bacteria has occurred. Ketoconazole (at 1 mg/mL in DMSO) was used as a positive control for Malassezia growth inhibition. The effect of growth of Acetobacter was tested on Malassezia restricta and Malassezia globosa. All Malassezia strains were streaked from −80° C. stock on Modified Leeming and Notman (MLN) agar plates and incubated 10 days at 30° C. […]"}, "[6]": {"test_system": "Malassezia globosa", "assay": "modified disc diffusion assay with living culture (Example 2)", "settings": "M. globosa lawn; discs soaked with 15 ul exponentially growing Acetobacter culture or ketoconazole 1 mg/mL in DMSO; 5 days incubation", "procedure": "as §3, §4"}}, "note": "“Also recorded” adds a separate entry of the source.", "data": [{"smiles": "CC(=O)N1CCN(c2ccc(OCC3COC(Cn4ccnc4)(c4ccc(Cl)cc4Cl)O3)cc2)CC1", "note": "(stereo not drawn) [ketoconazole]", "values": [{"measurement": "growth inhibition (inhibition halo around disc)", "setting": "[1]", "result": "inhibits growth; also recorded: inhibited"}, {"measurement": "growth inhibition (inhibition halo around disc)", "setting": "[2]", "result": "inhibits growth; also recorded: inhibited"}, {"measurement": "growth inhibition (inhibition halo around disc)", "setting": "[3]", "result": "inhibits growth; also recorded: inhibited"}, {"measurement": "growth inhibition (inhibition halo around disc)", "setting": "[4]", "result": "inhibits growth; also recorded: inhibited"}, {"measurement": "growth inhibition (inhibition halo around disc)", "setting": "[5]", "result": "inhibits growth; also recorded: inhibited"}, {"measurement": "growth inhibition (inhibition halo around disc)", "setting": "[6]", "result": "inhibits growth; also recorded: inhibited"}]}]}
